Test results as given in patent US7825253B2, “2-aminoquinoline derivatives” (Hoffmann-La Roche Inc., priority 2006, dated 2010).

Tested on: not given
Assay: not given
Settings: not given

SMILES	melting point
Cc1ccc(CNc2ccc3c(CNC(=O)c4ccc(F)cc4)cccc3n2)o1 [Example 126, 4-Fluoro-N-{2-[(5-methyl-furan-2-ylmethyl)-amino]-quinolin-5-ylmethyl}-benzamide]	173 °C
COc1ccccc1CNc1ccc2c(C(=N)c3ccc(F)cc3)cccc2n1 [Example 136, {5-[(4-Fluoro-phenyl)-imino-methyl]-quinolin-2-yl}-(2-methoxy-benzyl)-amine]	155 °C
COc1ccccc1CNc1ccc2c(CNC(=O)c3ccc(F)cc3)cccc2n1 [Example 146]	162.5 °C
COc1ccccc1CNc1ccc2c(-c3noc(C)n3)cccc2n1 [Example 150, (2-Methoxy-benzyl)-[5-(5-methyl-[1,2,4]oxadiazol-3-yl)-quinolin-2-yl]-amine]	121.5 °C

Molecular target: T1, recombinant human 5-HT5A receptor (Homo sapiens, UniProt P47898)
T1 construct: expressed in transfected cells; host or cells: Human Embryonic Kidney-EBNA (HEK-EBNA) cells, transient cDNA expression; membranes
T1 sequence (P47898 whole entry): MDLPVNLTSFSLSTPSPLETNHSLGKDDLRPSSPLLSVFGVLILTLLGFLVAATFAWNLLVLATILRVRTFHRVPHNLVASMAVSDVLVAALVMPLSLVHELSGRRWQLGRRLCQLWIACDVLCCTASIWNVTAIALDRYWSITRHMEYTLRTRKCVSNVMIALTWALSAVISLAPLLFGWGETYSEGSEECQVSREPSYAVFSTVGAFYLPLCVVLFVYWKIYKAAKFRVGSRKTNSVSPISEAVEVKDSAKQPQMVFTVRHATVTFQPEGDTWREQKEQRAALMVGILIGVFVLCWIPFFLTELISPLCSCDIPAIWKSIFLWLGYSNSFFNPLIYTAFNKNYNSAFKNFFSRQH
Assay: [3H]LSD radioligand binding assay
Settings: [3H]LSD approx. 1 nM; membranes from HEK-EBNA cells transiently expressing 5-HT5A; Ki from IC50 by Cheng-Prussoff
Procedure: A [^3H]LSD radioligand binding assay was used to determine the affinity of the compounds for the recombinant human 5-HT5A receptor, in membranes from transiently (cDNA) expressed 5-HT5A receptors in Human Embryonic Kidney-EBNA (HEK-EBNA) cells. Assay buffer consisted of Tris (50 mM) buffer containing 1 mM EGTA, 10 mM MgCl2 (pH 7.4) and 10 μM pargyline. The binding assay was carried out in 96-well-plates in the presence of [^3H]LSD (approximately 1 nM), approximately 2 μg/well of membrane protein, and 0.5 mg of Ysi-poly-l-lysine SPA beads in a final volume of 200 μl of buffer. Non-specific binding was defined using methiothepin 2 μM. Compounds were tested at 10 concentrations. All assays were conducted in duplicate and repeated at least two times. Assay plates were incubated for 120 min at room temperature before centrifugation. Bound ligand was determined using a Packard Topcount scintillation counter. IC50 values were calculated using a non-linear curve fitting program and Ki values calculated using the Cheng-Prussoff equation.

SMILES	Ki
Cc1cc2cccc(Nc3ccc4c(NCc5ccc6[nH]cnc6c5)cccc4n3)c2o1 [Example 124, N5-(1H-Benzoimidazol-5-ylmethyl)-N2-(2-methyl-benzofuran-7-yl)-quinoline-2,5-diamine]	6.29 nM
Cc1cc2cccc(Nc3ccc4c(NCc5[nH]cnc5C)cccc4n3)c2o1 [Example 125, N2-(2-Methyl-benzofuran-7-yl)-N5-(5-methyl-3H-imidazol-4-ylmethyl)-quinoline-2,5-diamine]	2.33 nM
Cc1cc2cccc(Nc3ccc4c(NS(=O)(=O)c5ccc(F)cc5)cccc4n3)c2o1 [Example 128, 4-Fluoro-N-[2-(2-methyl-benzofuran-7-ylamino)-quinolin-5-yl]-benzenesulfonamide]	79.7 nM
Cc1cc2cccc(Nc3ccc4c(NCc5cccnc5)cccc4n3)c2o1 [Example 129, N2-(2-Methyl-benzofuran-7-yl)-N5-pyridin-3-ylmethyl-quinoline-2,5-diamine]	16 nM
Cc1cc2cccc(Nc3ccc4c(NCc5cnc[nH]5)cccc4n3)c2o1 [Example 131, N5-(3H-Imidazol-4-ylmethyl)-N2-(2-methyl-benzofuran-7-yl)-quinoline-2,5-diamine]	17.4 nM
Cc1cc2cccc(Nc3ccc4c(NCc5cc(F)cc(F)c5)cccc4n3)c2o1 [Example 132, N5-(3,5-Difluoro-benzyl)-N2-(2-methyl-benzofuran-7-yl)-quinoline-2,5-diamine]	15 nM
COc1ccccc1CNc1ccc2c(C(=N)c3ccc(F)cc3)cccc2n1 [Example 136, {5-[(4-Fluoro-phenyl)-imino-methyl]-quinolin-2-yl}-(2-methoxy-benzyl)-amine]	35.6 nM
COc1ccccc1CNc1ccc2c(C(=O)c3ccc(F)cc3)cccc2n1 [Example 137, (4-Fluoro-phenyl)-[2-(2-methoxy-benzylamino)-quinolin-5-yl]-methanone]	50.9 nM
O=S(=O)(Nc1cccc2nc(Nc3cccc4c3OCC4)ccc12)c1cc(F)cc(F)c1 [Example 139, N-[2-(2,3-Dihydro-benzofuran-7-ylamino)-quinolin-5-yl]-3,5-difluoro-benzenesulfonamide]	35.5 nM
CC1Cc2cccc(Nc3ccc4c(NCc5cccc6[nH]ccc56)cccc4n3)c2O1 (stereo not drawn) [Example 140, N5-(1H-Indol-4-ylmethyl)-N2-(2-methyl-2,3-dihydro-benzofuran-7-yl)-quinoline-2,5-diamine]	11.9 nM
CC1(C)Cc2cccc(Nc3ccc4c(NS(=O)(=O)c5cc(F)cc(F)c5)cccc4n3)c2O1 [Example 141, N-[2-(2,2-Dimethyl-2,3-dihydro-benzofuran-7-ylamino)-quinolin-5-yl]-3,5-difluoro-benzenesulfonamide]	22 nM
Cc1ccc(CNc2ccc3c(NS(=O)(=O)Nc4ccccc4)cccc3n2)o1 [Example 145, N-(2-{[(5-methyl-2-furyl)methyl]amino}quinolin-5-yl)-N′-phenylsulfamide]	51.3 nM
COc1ccccc1CNc1ccc2c(CNC(=O)c3ccc(F)cc3)cccc2n1 [Example 146]	86 nM
CC1(C)Cc2cccc(Nc3ccc4c(NCc5cccc6[nH]ccc56)cccc4n3)c2O1 [Example 147, N2-(2,2-Dimethyl-2,3-dihydro-benzofuran-7-yl)-N5-(1H-indol-4-ylmethyl)-quinoline-2,5-diamine]	4.31 nM
CC1(C)Cc2cccc(Nc3ccc4c(NCc5ccc6[nH]cnc6c5)cccc4n3)c2O1 [Example 148, N5-(1H-Benzoimidazol-5-ylmethyl)-N2-(2,2-dimethyl-2,3-dihydro-benzofuran-7-yl)-quinoline-2,5-diamine]	3.08 nM
Cc1nc[nH]c1CNc1cccc2nc(Nc3cccc4c3OC(C)(C)C4)ccc12 [Example 149, N2-(2,2-Dimethyl-2,3-dihydro-benzofuran-7-yl)-N5-(5-methyl-3H-imidazol-4-ylmethyl)-quinoline-2,5-diamine]	3.97 nM
Cc1ccc(CNc2ccc3c(N[C@H]4CCS(=O)(=O)c5ccccc54)cccc3n2)o1 [Example 152, (R)— and (S)—N5-((S)-1,1-Dioxo-1l6-thiochroman-4-yl)-N2-(5-methyl-furan-2-ylmethyl)-quinoline-2,5-diamine]	14.7 nM
Cc1ccc(CNc2ccc3c(NS(=O)(=O)Nc4ccc(F)cc4)cccc3n2)o1 [Example 154, N-(2-{[(5-methyl-2-furyl)methyl]amino}quinolin-5-yl)-N′-(4-fluorophenyl)sulfamide]	25.5 nM
CC1(C)Cc2cccc(Nc3ccc4c(NS(=O)(=O)Nc5ccc(F)cc5)cccc4n3)c2O1 [Example 156, N-{2-[(2,2-dimethyl-2,3-dihydro-1-benzofuran-7-yl)amino]quinolin-5-yl}-N′-(4-fluorophenyl)sulfamide]	45.1 nM
O=S(=O)(Nc1cccc2nc(Nc3cccc(C4CC4)c3)ccc12)c1cc(F)cc(F)c1 [Example 159, N-[2-(3-Cyclopropyl-phenylamino)-quinolin-5-yl]-3,5-difluoro-benzenesulfonamide]	28.3 nM
CC(C)(C)c1cccc(Nc2ccc3c(NS(=O)(=O)c4cc(F)cc(F)c4)cccc3n2)c1 [Example 161, N-[2-(3-tert-Butyl-phenylamino)-quinolin-5-yl]-3,5-difluoro-benzenesulfonamide]	35.5 nM
CC1(C)Cc2cccc(Nc3ccc4c(NCc5cccnc5)cccc4n3)c2O1 [Example 163, N2-(2,2-Dimethyl-2,3-dihydro-benzofuran-7-yl)-N5-pyridin-3-ylmethyl-quinoline-2,5-diamine]	9.92 nM
c1cc(Nc2ccc3c(NCc4cccc5[nH]ccc45)cccc3n2)cc(C2CC2)c1 [Example 164, N2-(3-Cyclopropyl-phenyl)-N5-(1H-indol-4-ylmethyl)-quinoline-2,5-diamine]	16.6 nM
c1cc(Nc2ccc3c(NCc4ccc5[nH]cnc5c4)cccc3n2)cc(C2CC2)c1 [Example 165, N5-(1H-Benzoimidazol-5-ylmethyl)-N2-(3-cyclopropyl-phenyl)-quinoline-2,5-diamine]	6.43 nM
Cc1nc[nH]c1CNc1cccc2nc(Nc3cccc(C4CC4)c3)ccc12 [Example 166, N2-(3-Cyclopropyl-phenyl)-N5-(5-methyl-3H-imidazol-4-ylmethyl)-quinoline-2,5-diamine]	34.2 nM
COc1ccccc1CNc1ccc2c(C(=NO)c3ccc(F)cc3)cccc2n1 [Example 167, (4-Fluoro-phenyl)-[2-(2-methoxy-benzylamino)-quinolin-5-yl]-methanone oxime]	7.19 nM
